This is an account of results in patent US8962596B2 (Array BioPharma Inc., priority 2010, dated 2015).

Where only a bound is given, the exact number is not on record here.

Common to all, as to type: biochemical
Assay [1] concerns the target T1, JAK1 (Homo sapiens, UniProt P23458).
T1 construct: purchased Invitrogen Corporation, Carlsbad, Calif; PV4775
Nature of the assay: JAK1 Inhibition Assay (Omnia kinase fluorescence peptide substrate assay). The note with it: averaged IC50 ranges; assay of Example B; 40 μM (Km app) or 1 mM ATP, 15 nM JAK1.

Assay [2] addresses T2, JAK2 (Homo sapiens, UniProt O60674).
T2 construct: purchased Invitrogen Corporation, Carlsbad, Calif; PV4288
Nature of the assay: JAK2 Inhibition Assay (Omnia kinase fluorescence peptide substrate assay). Particulars: averaged IC50 ranges; assay of Example C; 25 μM (Km app) or 1 mM ATP, 5 nM JAK2. The gist of the method: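 A 10-point, 3-fold compound series (top 10 μM, 2% DMSO) was tested against 5 nM JAK2 with 10 μM Omnia Y7 substrate and either 1 mM or 25 μM (Km app) ATP. Buffer: pH 7.4 HEPES, MgCl2, Triton X-100, DTT. Sox fluorescence was monitored kinetically for 45 min; IC50 is the concentration giving 50 POC on a 4-parameter fit.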

In assay [3] the target is T3, Human Tyk2 kinase domain (Homo sapiens, UniProt P29597).
T3 construct: comprising amino acids 886 to 1187 with 10 additional histidine residues; 10xHis (histidine tag) (C, cleaved yes); made in house
T3 sequence (P29597 886-1187): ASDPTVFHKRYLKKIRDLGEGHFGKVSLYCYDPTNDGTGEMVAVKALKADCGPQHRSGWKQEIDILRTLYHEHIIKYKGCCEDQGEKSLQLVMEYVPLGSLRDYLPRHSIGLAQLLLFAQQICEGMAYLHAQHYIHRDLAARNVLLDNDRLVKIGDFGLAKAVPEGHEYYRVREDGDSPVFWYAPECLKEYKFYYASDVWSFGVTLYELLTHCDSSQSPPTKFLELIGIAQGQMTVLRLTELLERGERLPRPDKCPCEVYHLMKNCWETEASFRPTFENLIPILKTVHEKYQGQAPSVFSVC
The assay is described as follows: Tyk2 Inhibition Assay (Omnia kinase fluorescence peptide substrate assay). The note with it: averaged IC50 ranges; assay of Example A; 10 μM (Km app) or 1 mM ATP, 2 nM Tyk2. The essentials: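 2 nM His-tag-cleaved kinase domain (aa 886–1187) with 8 μM Omnia Y12 peptide, 10 μM (Km app) or 1 mM ATP, pH 7.4 HEPES/10 mM MgCl2, 2% DMSO. Fluorescence (ex 360/em 485 nm) every 50 s for 45 min; IC50 from 4-parameter fit of POC, top dose 10 μM.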

Assay [4] has as its target T4, JAK3 (Homo sapiens, UniProt P52333).
T4 construct: purchased Invitrogen Corporation, Carlsbad, Calif; PV4080
T4 sequence (P52333 1-1124): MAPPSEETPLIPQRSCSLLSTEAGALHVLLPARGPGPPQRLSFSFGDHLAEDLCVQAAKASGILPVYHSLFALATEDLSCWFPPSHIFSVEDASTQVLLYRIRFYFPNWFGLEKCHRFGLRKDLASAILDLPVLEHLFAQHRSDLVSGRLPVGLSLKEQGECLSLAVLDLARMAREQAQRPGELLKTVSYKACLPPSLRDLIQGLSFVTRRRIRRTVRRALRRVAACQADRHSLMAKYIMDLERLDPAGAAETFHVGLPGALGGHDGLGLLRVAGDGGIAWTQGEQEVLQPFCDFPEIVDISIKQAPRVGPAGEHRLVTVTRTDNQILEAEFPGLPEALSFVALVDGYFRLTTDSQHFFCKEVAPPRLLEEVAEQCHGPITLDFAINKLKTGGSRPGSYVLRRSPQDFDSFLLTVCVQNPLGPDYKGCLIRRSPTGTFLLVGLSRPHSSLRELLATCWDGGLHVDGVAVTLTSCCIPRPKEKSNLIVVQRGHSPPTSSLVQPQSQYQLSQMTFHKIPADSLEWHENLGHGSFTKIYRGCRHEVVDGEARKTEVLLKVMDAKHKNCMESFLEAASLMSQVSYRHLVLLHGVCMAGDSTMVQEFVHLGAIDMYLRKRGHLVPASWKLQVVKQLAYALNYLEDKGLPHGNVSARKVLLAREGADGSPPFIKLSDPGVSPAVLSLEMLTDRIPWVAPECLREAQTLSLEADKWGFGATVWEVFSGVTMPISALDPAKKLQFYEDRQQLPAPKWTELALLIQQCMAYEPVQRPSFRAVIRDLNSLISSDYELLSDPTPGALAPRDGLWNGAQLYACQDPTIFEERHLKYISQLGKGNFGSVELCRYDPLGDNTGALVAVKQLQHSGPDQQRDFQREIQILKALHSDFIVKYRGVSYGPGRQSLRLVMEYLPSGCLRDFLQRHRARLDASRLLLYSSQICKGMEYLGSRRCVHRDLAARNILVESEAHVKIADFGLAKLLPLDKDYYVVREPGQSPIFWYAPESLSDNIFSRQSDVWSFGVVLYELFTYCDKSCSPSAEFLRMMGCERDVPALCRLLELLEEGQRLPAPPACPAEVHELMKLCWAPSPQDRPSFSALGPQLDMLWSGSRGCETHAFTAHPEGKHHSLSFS
The assay is described as follows: JAK3 Inhibition Assay (Omnia kinase fluorescence peptide substrate assay). Particulars: averaged IC50 ranges; assay of Example D; 10 μM (Km app) or 1 mM ATP, 2.5 nM JAK3. The gist of the method: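 Kinase at 2.5 nM with 10 µM Omnia Y7 peptide and 10 µM (Km app) or 1 mM ATP in 25 mM HEPES pH 7.4, 10 mM MgCl2, 1 mM DTT, 0.01% Triton X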

T1 sequence (P23458 whole entry): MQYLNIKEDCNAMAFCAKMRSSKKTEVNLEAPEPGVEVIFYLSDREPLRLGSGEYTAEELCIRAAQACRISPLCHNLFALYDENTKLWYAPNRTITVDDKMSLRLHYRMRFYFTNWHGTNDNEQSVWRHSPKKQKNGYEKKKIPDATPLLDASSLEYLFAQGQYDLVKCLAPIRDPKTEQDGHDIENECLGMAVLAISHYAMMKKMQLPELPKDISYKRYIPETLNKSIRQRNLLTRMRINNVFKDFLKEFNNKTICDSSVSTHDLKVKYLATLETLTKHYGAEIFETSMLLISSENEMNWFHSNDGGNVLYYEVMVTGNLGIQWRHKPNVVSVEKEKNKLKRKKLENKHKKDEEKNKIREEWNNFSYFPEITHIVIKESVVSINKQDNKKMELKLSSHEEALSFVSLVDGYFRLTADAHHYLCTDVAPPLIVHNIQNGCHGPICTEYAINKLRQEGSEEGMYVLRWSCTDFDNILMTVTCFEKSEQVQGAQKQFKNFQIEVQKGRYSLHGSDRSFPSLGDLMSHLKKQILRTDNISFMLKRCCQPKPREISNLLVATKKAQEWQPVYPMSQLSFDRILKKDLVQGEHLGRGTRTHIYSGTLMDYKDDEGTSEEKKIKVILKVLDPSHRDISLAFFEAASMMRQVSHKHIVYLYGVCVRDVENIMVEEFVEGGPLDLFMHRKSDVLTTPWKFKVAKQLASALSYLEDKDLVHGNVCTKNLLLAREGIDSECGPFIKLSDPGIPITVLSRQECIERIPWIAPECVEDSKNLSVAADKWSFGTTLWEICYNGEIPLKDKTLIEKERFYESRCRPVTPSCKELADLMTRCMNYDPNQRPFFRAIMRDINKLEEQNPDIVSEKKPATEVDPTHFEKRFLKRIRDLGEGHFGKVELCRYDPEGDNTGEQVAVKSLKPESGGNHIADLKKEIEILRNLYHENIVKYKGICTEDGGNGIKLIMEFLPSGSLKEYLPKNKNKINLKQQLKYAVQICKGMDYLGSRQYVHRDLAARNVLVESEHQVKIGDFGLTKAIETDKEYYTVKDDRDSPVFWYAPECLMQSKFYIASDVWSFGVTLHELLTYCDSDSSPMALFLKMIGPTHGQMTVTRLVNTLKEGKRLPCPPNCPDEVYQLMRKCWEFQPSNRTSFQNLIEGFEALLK
T2 sequence (O60674 whole entry): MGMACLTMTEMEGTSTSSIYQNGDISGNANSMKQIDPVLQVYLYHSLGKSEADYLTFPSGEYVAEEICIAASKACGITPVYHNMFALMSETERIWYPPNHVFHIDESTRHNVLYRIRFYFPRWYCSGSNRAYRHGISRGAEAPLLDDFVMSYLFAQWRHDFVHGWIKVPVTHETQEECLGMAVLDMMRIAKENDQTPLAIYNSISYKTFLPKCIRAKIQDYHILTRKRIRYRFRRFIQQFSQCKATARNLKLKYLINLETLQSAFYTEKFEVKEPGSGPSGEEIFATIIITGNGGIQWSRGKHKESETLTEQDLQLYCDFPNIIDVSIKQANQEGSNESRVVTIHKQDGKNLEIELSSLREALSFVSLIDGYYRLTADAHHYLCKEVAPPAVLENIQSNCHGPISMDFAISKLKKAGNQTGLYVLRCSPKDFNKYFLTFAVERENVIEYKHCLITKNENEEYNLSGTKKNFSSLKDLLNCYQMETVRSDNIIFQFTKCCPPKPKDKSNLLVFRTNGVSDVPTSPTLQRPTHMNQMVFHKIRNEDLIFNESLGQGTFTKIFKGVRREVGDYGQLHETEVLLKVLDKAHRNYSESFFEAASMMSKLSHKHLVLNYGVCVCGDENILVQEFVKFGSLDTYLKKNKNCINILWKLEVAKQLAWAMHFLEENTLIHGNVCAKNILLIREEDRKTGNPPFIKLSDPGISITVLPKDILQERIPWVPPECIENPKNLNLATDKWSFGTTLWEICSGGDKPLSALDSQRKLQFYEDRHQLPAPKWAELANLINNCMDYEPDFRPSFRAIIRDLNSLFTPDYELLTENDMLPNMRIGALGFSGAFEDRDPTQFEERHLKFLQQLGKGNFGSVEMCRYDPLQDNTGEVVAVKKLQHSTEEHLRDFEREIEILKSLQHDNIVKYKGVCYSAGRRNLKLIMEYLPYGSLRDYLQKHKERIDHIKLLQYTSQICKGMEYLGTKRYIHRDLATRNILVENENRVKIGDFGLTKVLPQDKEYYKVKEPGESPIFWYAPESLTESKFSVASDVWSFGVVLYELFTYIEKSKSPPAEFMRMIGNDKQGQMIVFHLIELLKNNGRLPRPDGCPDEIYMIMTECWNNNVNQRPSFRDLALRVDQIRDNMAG

For orientation: IC50 means the concentration that inhibits the measured activity by half. `Cc1nn(C(CC#N)C2CCCC2)cc1-c1nc(-c2ccc(N3CCOCC3)cc2)cc2nccn12` (stereo not drawn) [Example 121, 3-Cyclopentyl-3-(3-methyl-4-(7-(4-morpholinophenyl)imidazo[1,2-c]pyrimidin-5-yl)-1H-pyrazol-1-yl)propanenitrile]: the IC50 in assay [1] is 100 to 1000 nM; in assay [2], 10 to 100 nM; in assay [3], below 10 nM; in assay [4] it was above 1000 nM.

As for `Cn1cc(-c2cc3nccn3c(-c3cnn(C4(CC#N)CCCC4)c3)n2)cn1` [Example 23, 2-(1-(4-(7-(1-methyl-1H-pyrazol-4-yl)imidazo[1,2-c]pyrimidin-5-yl)-1H-pyrazol-1-yl)cyclopentyl)acetonitrile], the IC50 is 100 to 1000 nM in assay [1], 100 to 1000 nM in assay [2], 10 to 100 nM in assay [3] and above 1000 nM in assay [4].

As to `Cc1ncc(-c2cc3nccn3c(-c3cnn(C4(CC#N)CN(CC(F)(F)F)C4)c3)n2)s1` [Example 102, 2-(3-(4-(7-(2-Methylthiazol-5-yl)imidazo[1,2-c]pyrimidin-5-yl)-1H-pyrazol-1-yl)-1-(2,2,2-trifluoroethyl)azetidin-3-yl)acetonitrile], the IC50 is 100 to 1000 nM in assay [1], 100 to 1000 nM in assay [2], 10 to 100 nM in assay [3] and above 1000 nM in assay [4].

As to `CN1CCN(CCn2cc(-c3cc4nccn4c(-c4cnn(C(CC#N)C5CC5)c4)n3)cn2)CC1` (stereo not drawn) [Example 44, 3-cyclopropyl-3-(4-(7-(1-(2-(4-methylpiperazin-1-yl)ethyl)-1H-pyrazol-4-yl)imidazo[1,2-c]pyrimidin-5-yl)-1H-pyrazol-1-yl)propanenitrile], the IC50 lay in the range of 100 to 1000 nM in assay [1], 10 to 100 nM in assay [2], 10 to 100 nM in assay [3] and 100 to 1000 nM in assay [4].

Turning to `COc1ncc(-c2cc3nccn3c(-c3cnn(C4(CC#N)CN(S(=O)(=O)C(F)(F)F)C4)c3)n2)cn1` [Example 142, 2-(3-(4-(7-(2-methoxypyrimidin-5-yl)imidazo[1,2-c]pyrimidin-5-yl)-1H-pyrazol-1-yl)-1-(trifluoromethylsulfonyl)azetidin-3-yl)acetonitrile], the 50% inhibitory concentration (IC50) in assay [1] was above 1000 nM; in assay [2], above 1000 nM; in assay [3], 10 to 100 nM; in assay [4], above 1000 nM.

Turning to `Cn1cc(-c2cc3nccn3c(-c3cnn(C4(CC#N)CCN(CC(F)(F)F)CC4)c3)n2)cn1` [Example 31, 2-(4-(4-(7-(1-methyl-1H-pyrazol-4-yl)imidazo[1,2-c]pyrimidin-5-yl)-1H-pyrazol-1-yl)-1-(2,2,2-trifluoroethyl)piperidin-4-yl)acetonitrile], the IC50 in assay [1] is 100 to 1000 nM; in assay [2], 100 to 1000 nM; in assay [3], 10 to 100 nM; in assay [4], above 1000 nM.
